In patent publication US8242167B2, “Mannose derivatives for killing tumor cells” (University of Miami, priority 2006, dated 2012):

Legend:
143B, osteosarcoma = test: Cytotoxicity under normoxia, 143B; type: cell-based, human; conditions: column head gives the result: resistant
Method: (§1) Cell types. The Δ^0 cells were isolated by treating osteosarcoma cell line 143B (wt) with ethidium bromide for prolonged periods, as previously described (9). Because the Δ^0 cells are uridine and pyruvate auxotrophs, they were grown in DMEM (GIBCO, USA) supplemented with 10% fetal calf serum, 50 μg/ml of uridine and 100 mM sodium pyruvate. The SKBR3 cell line was obtained from Dr. Joseph Rosenblatt's laboratory at the University of Miami. The pancreatic cancer cell lines 1420 and 1469, the ovarian cancer cell line SKOV3, the cervical cancer cell line HELA, and the osteosarcoma cell line 143B were purchased from ATCC. The non-small cell lung cancer and small cell lung cancer cell lines were derived from patients by Dr. Niramol Savaraj at the University of Miami. SKBR3 and SKOV3 cells were grown in McCoy's 5A medium; 1420, 1469 and 143B were grown in DMEM (GIBCO, USA); and HELA was grown in MEM (GIBCO, USA). The media was supplemented with 10% fetal bovine serum. All cells were grown under 5% CO2 and 37° C. Cytotoxicity assay. Cells were incubated for 24 hr at 37° C. in 5% CO2 at which time drug treatments began and continued for 72 hr. […] The pellets were resuspended in 1 ml of Hanks solution and analyzed by Vi-Cell (Beckman Coulter, USA) cell viability analyzer.

[1] = tested on: glycoproteins (ConA binding) in SKBR3 cells; test: HRP-conjugated ConA blot of SKBR3 cell extracts; type: cell-based, human; conditions: SKBR3, 48 hr, 8 mM sugar analog
Method: (§2) Western Blot analysis. Cells were plated at 10^4 cell cm^−2 and grown under drug treatment for the indicated times. At the end of the treatment period, cells were collected and lysed with 1% SDS in 80 mM Tris-HCL (ph 7.4) buffer supplemented with a proteinase inhibitor cocktail. DNA was fragmented by sonication and protein concentrations were measured by microBCA protein assay kit (Pierce, USA). Samples were mixed with 2× Laemmli sample buffer (Bio-Rad, USA) and run on a SDS-polyacrylamide gel. Gels were transferred to nitrocellulose membranes (Amersham, USA) and probed with anti-KDEL (Stressgen, Canada) (for Grp78 and Grp94); polyclonal anti-CHOP/[…] (Santa Cruz, USA), polyclonal anti-erbB2 (DAKO, USA). Following probing, membranes were washed and incubated with an HRP conjugated secondary antibody. Chemiluminesence was detected by exposure to film. Where indicated, membranes were stripped with Stripping Buffer (Pierce, USA) and reprobed with anti-actin (Sigma, USA) primary antibody. To analyze conconavalin A (ConA) binding, the membranes were incubated with 0.2 μg/ml HRP-conjugated ConA, and chemiluminescence was detected as described.

Grp78 and Grp94 [2] = test: Western blot of Grp78 and Grp94 in models of hypoxia A, B & C; type: cell-based
Method: as §2
Three in vitro models of hypoxia. We previously characterized three models of anaerobiosis as follows: Model A are tumor cells treated with 0.05 μg/ml of oligomycin (a mitochondrial inhibitor of ATP synthase); Model B are cells that are deficient in mitochondrial DNA and Model C are cells treated in an hypoxic (0.5% O^2) chamber (Reming Bioinstruments, Redfield, N.Y.).

[3] = tested on: MDA-MB-468, breast cancer; test: Cytotoxicity under normoxia, MDA-MB-468; type: cell-based; conditions: column head gives the result: resistant
Method: (§3) Cytotoxicity assay. Cells were incubated for 24 hr at 37° C. in 5% CO2 at which time drug treatments began and continued for 72 hr. At this time, attached cells were trypsinized and combined with their respective culture media followed by centrifugation at 400 g for 5 min. The pellets were resuspended in 1 ml of Hanks solution and analyzed by Vi-Cell (Beckman Coulter, USA) cell viability analyzer.

SKBR3 cells = test: Growth inhibitory and cytotoxicity assay in SKBR3 cells under normoxia; type: cell-based, human
Method: Cytotoxicity assay and Rapid DNA Content Analysis. Cells were incubated for 24 hr at 37° C. in 5% CO2 at which time drug treatments began and were continued for 72 hr. At this time, attached cells were trypsinized and combined with their respective culture media followed by centrifugation at 400 g for 5 min. Pellets containing the cells were either resuspended in 1.5 ml of a medium/trypan blue mixture for cytotoxicity assays or propidium iodide/hypotonic citrate staining solution for determining the nuclear DNA content and cell cycle by a Coulter XL flow cytometer. A minimum of 10,000 cells were analyzed to generate a DNA distribution histogram.
as §3

HELA, cervical cancer = test: Cytotoxicity under normoxia, HELA; type: cell-based; conditions: column head gives the result: sensitive
Method: as §1

[4] = tested on: TG98, brain cancer (glioblastoma); test: Cytotoxicity under normoxia, TG98; type: cell-based; conditions: column head gives the result: sensitive
Method: as §3

SKOV3, ovarian cancer = test: Cytotoxicity under normoxia, SKOV3; type: cell-based; conditions: column head gives the result: resistant
Method: as §1

HEPA-1 = test: Cytotoxicity under normoxia, HEPA-1; type: cell-based, rat; conditions: column head gives the result: resistant
Method: as §3

human tumor xenografts = conditions: different human tumor xenografts; cited from earlier work
[5] = tested on: S-1 & S-2, non-small cell lung cancer; test: Cytotoxicity under normoxia, NSCLC; type: cell-based, human; conditions: normoxic conditions
Method: as §1

[6] = tested on: MDA-MB-231, breast cancer; test: Cytotoxicity under normoxia, MDA-MB-231; type: cell-based; conditions: column head gives the result: resistant
Method: as §3

tumor cell lines = test: Toxicity survey of tumor cell lines under normoxic conditions; type: cell-based
Method: (§4) Cell types. The Δ^0 cells were isolated by treating osteosarcoma cell line 143B (wt) with ethidium bromide for prolonged periods, as previously described (9). Because the Δ^0 cells are uridine and pyruvate auxotrophs, they were grown in DMEM (GIBCO, USA) supplemented with 10% fetal calf serum, 50 μg/ml of uridine and 100 mM sodium pyruvate. The SKBR3 cell line was obtained from Dr. Joseph Rosenblatt's laboratory at the University of Miami. The pancreatic cancer cell lines 1420 and 1469, the ovarian cancer cell line SKOV3, the cervical cancer cell line HELA, and the osteosarcoma cell line 143B were purchased from ATCC. The non-small cell lung cancer and small cell lung cancer cell lines were derived from patients by Dr. Niramol Savaraj at the University of Miami. SKBR3 and SKOV3 cells were grown in McCoy's 5A medium; 1420, 1469 and 143B were grown in DMEM (GIBCO, USA); and HELA was grown in MEM (GIBCO, USA). The media was supplemented with 10% fetal bovine serum. All cells were grown under 5% CO2 and 37° C.
as §3

MCF-7, breast cancer = test: Cytotoxicity under normoxia, MCF-7; type: cell-based; conditions: column head gives the result: resistant
Method: as §3

1420, pancreatic cancer = test: Cytotoxicity under normoxia, 1420; type: cell-based, human; conditions: column head gives the result: sensitive
Method: as §4, §3

Grp78 and Grp94 [7] = test: Western blot of Grp78 and Grp94 (unfolded protein response) in SKBR3 cells under normoxia; type: cell-based, human
Method: as §2

[8] = animal studies and preliminary Phase I results; cited from earlier work
fowl plague virus = conditions: chick embryo fibroblasts infected with fowl plague virus; cited from earlier work
CHOP/GADD154 = test: Western blot of CHOP/GADD154 in SKBR3 cells; type: cell-based, human; conditions: SKBR3, normoxia, 24 hrs; 8 mM sugar analog
Method: as §2

1469, pancreatic cancer = test: Cytotoxicity under normoxia, 1469; type: cell-based; conditions: column head gives the result: resistant
Method: as §1

erbB2 = test: Western blot of erbB2 in SKBR3 cells; type: cell-based, human
Method: as §2

With `O=CC[C@@H](O)[C@H](O)[C@H](O)CO` [2-DG, 2-deoxy-D-glucose] the “2-DG Resistant Cell Lines (2-DG under normoxia)” value (shortened to “2-DG Resistant Cell Lines”) (143B, osteosarcoma) was 143B, osteosarcoma, the “ConA binding of glycoproteins” value [1] was “decrease ConA binding” and the “upregulation of the UPR (Grp78, Grp94)” value (Grp78 and Grp94 [2]; hypoxia model C) was “both chaperones are upregulated”. The “upregulation of the UPR (Grp78, Grp94)” value (Grp78 and Grp94 [2]; hypoxia models A and B) was “no significant upregulation of the UPR”, the “2-DG Resistant Cell Lines” value [3] was “MDA-MB-468, breast cancer” and the cells killed (SKBR3 cells; SKBR3, 12 mM, 72 hrs, normoxic conditions) was 60%. For the same compound, the “cytotoxicity measured by trypan blue exclusion” value (SKBR3 cells; SKBR3, 72 hrs, normal oxygen conditions) was “toxic”, the “2-DG Sensitive Cell Lines (2-DG under normoxia)” value (shortened to “2-DG Sensitive Cell Lines”) (SKBR3 cells; column head gives the result: sensitive) was “SKBR3, breast cancer” and the “rank order in growth inhibiting and killing SKBR3 cells” value (SKBR3 cells; normoxia) was 2-DG>2-FDM>>>2-FDG. The “2-DG Sensitive Cell Lines” value (HELA, cervical cancer) was “HELA, cervical cancer”, the “2-DG Sensitive Cell Lines” value [4] was “TG98, brain cancer (glioblastoma)” and the “2-DG Resistant Cell Lines” value (SKOV3, ovarian cancer) was “SKOV3, ovarian cancer”. The “2-DG Resistant Cell Lines” value (HEPA-1) was “HEPA-1, rat hepatoma”, the “effect on efficacy of standard chemotherapeutic agents” value (human tumor xenografts) was “increases the efficacy of standard chemotherapeutic agents” and the “toxicity to NSCLC” value [5] was “toxic”. For the same compound, the “2-DG Resistant Cell Lines” value [6] was “MDA-MB-231, breast cancer”, the “tumor cell lines undergoing significant cell death” value (tumor cell lines; 6 mM, normal oxygen tension) was 6 out of 15 and the “dose at which a select number of tumor cell lines are killed” value (tumor cell lines; normal oxygen tension) was 4 mM. For the same compound, the “toxicity to select tumor cell types” value (tumor cell lines; normoxia) was “toxic to select tumor cell types growing under normoxia”, the “2-DG Resistant Cell Lines” value (MCF-7, breast cancer) was “MCF-7, breast cancer” and the “2-DG Sensitive Cell Lines” value (1420, pancreatic cancer) was 1420, pancreatic cancer. For the same compound, the “expression of chaperones Grp78 and Grp94” value (Grp78 and Grp94 [7]; SKBR3, normoxia, 24 hrs, 8 mM sugar analog, tunicamycin 1 micro g/ml) was “both Grp78 and Grp94 are upregulated”, the “up-regulation of GRP 78 and 94, dose dependence” value (Grp78 and Grp94 [7]; select tumor cells, normoxic conditions) was “up-regulated by 2-DG and 2-FM in a dose-dependent manner” and the tolerability [8] was “well-tolerated and relatively non-toxic to normal cells”. For the same compound, the “order of potency to inhibit viral glycoprotein synthesis” value (fowl plague virus) was 2-DG>2-FDM>2-FDG, the “induction of GADD154/CHOP” value (CHOP/GADD154) was “induced” and the “2-DG Resistant Cell Lines” value (1469, pancreatic cancer) was 1469, pancreatic cancer. The “molecular weight of erbB2” value (erbB2) was “decreased the molecular weight of erbB2”.
